The values that follow come from patent US5646149A, “Compounds having both potent calcium antagonist and antioxidant activity and use thereof as cytoprotective agents” (Alcon Laboratories, Inc., priority 1995, dated 1997).

Read-outs that look alike come from different tables or passages of the source.

A short description of assay [1]: DPPH free radical scavenging assay. The settings on record: 30 min. As for the experimental part:
(§1) The DPPH assay is a chemical assay used to determine free radical scavenging activity. The retinal pieces, liver microsomes and phospholipid oxidation models measure antioxidant activity. The calcium binding assay is a measure of the affinity of the compound for a calcium antagonist binding site. The test procedures are described in greater detail below.
Free radical scavenging activity was determined by measuring the test compound's ability to quench a ethanol solution of the free radical dye, 1,1-diphenyl-2-picrylhydrazyl, (DPPH). Test agents were dissolved in 95% ethanol and were added to a solution of DPPH in 95% ethanol. The final concentration of both the test compound and DPPH was 0.4 mMol. Absorbance was continuously recorded on a Perkin-Elmer Lamba 4B spectrophotometer. The percent quench was measured thirty minutes following the combination of the two solutions. (Free Rad. Res. Comms., volume 15, pages 91-100 (1991)).
For orientation: Loss of DPPH colour is used to gauge radical scavenging.

A further assay relates to bovine retinal pieces. Nature of the assay: Cytoprotection / lipid peroxidation (TBARS) in bovine retinal pieces after hypoxia-reoxygenation. Type of assay: cell-based. As for the experimental part:
The DPPH assay is a chemical assay used to determine free radical scavenging activity. The retinal pieces, liver microsomes and phospholipid oxidation models measure antioxidant activity. The calcium binding assay is a measure of the affinity of the compound for a calcium antagonist binding site. The test procedures are described in greater detail below. The cytoprotective effects of the compounds were measured using bovine retinal pieces. […] After 50 minutes of hypoxia, test agents were added to the media to allow 10 minutes for the drug to diffuse into the tissue prior to reoxygenation. Vehicle was added to the non-drug group. Following the incubation period, the tissue was reoxygenated for 1 h. Lipid peroxidation was assessed by the formation of thiobarbituric acid reacting substances (TBARS). The tissues were homogenized and added to TCA-TBA reagent and heated in the presence of BHT. The homogenate was filtered and the absorbance of the supernatant was measured spectrophotometrically. A double derivative technique was used to calculate the concentration of TBARS present in each sample. Quantitation was based on molar extinction coefficient of 1.56×10^5.

A further assay relates to Liver Microsomes. Nature of the assay: Liver microsome lipid peroxidation assay. Type of assay: biochemical. The procedure:
as §1
Antioxidant activity was also measured using a liver microsome assay (Chem. Biol. Interactions., volume 74, pages 233-52, (1990)). Microsomes were incubated in a KPi buffer. Lipid oxidation was initiated with ADP(1 mM)/FeCl3 (10 μM) and NADPH regenerating system, containing NADP^+. The lipid peroxidation was assayed by the TBA test. Malondialdehyde (MDA) was estimated by the formation of thiobarbituric acid-reactive substances. MDA-equivalents were calculated using ε=156 mM^- cm^-1. IC50S were calculated using regression lines.

Assay [2] in a line: Phospholipid oxidation assay in liposomes. Type of assay: biochemical. The procedure: as §1
Antioxidant activity was measured using a phospholipid oxidation assay. Liposomes formed from dilineoleolyl phosphocholine were exposed to Fe^+3 /EDTA (167 μM) and ascorbate (167 μM). Oxidation was measured by conjugate diene formation monitored using UV spectroscopy (Biochim. Biophys. Acta., volume 1081, pages 181-187, (1991)). The IC50 was calculated using the following non-linear regression algorithm: Y=A/[1+(B/X)^c ], wherein A=maximum, B=IC50 and c=cooperativity or relative broadness of the curves. The minimum was assumed to be zero.

The nature of a further assay: Singlet oxygen quenching. Further details: key: IA: inactive. The conditions noted are these: 37° C., ethanol/chloroform (50:50), 5 mM NDPO2. The procedure:
The singlet oxygen quenching activity was studied in the following manner. Singlet oxygen was generated chemically by using thermodissociation of the endoperoxide 3,3'-(1,4-naphthylidene dipropionate), NPDO2. At 37° C., 3 ml ethanol/chloroform (50:50) were placed in a thermosrated cuvette. Reactions were started by injection of 5 mM NDPO2. The singlet oxygen quenching constants were calculated according to Stern-Volmer plots, from S0 /S=1+(Kq+KR)*[Q}*I, where S0, S--chemiluminesence (1270 nm) intensities in absence and in the presence of quenchers, respectively, [Q} is the quencher concentration and I is the lifetime of singlet oxygen (see J. Amer. Chem., volume 111, pages 2904-2914, (1989)).

The target of assay [3] is calcium antagonist binding site. Nature of the assay: Calcium binding, radioligand (nitrendipine) binding assay in rat brain cortices. The conditions noted are these: radiolabeled nitrendipine. As for the experimental part:
as §1
Calcium binding was measured using a radioligand binding assay. Brain cortices were removed from rats and a membrane fraction was prepared by standard techniques. The membrane preparation was incubated with radiolabeled nitrendipine. Non-specific binding was estimated in the presence of non-labeled nitrendipine. Membranes were filtered and washed and the filters were counted to determine radiolabelled […] Acad. Sci. USA, volume 79, pages 3656-3660 (1982), Life Sci., volume 30, pages 2191-2202, (1982).

The subject of a further assay is retina of albino rats. Nature of the assay: Retinal light damage model (photochemical lesions, histology). Type of assay: in vivo, rat. The settings on record: intraperitoneal, 48 h light exposure. As for the experimental part: (§2) The retinoprotective properties of the compounds were measured in a light damage model. Photochemical lesions were induced in free moving unanesthetized albino rats by a single 48 h continuous broad-band florescent visible-light exposure. The rats were dosed by intraperitoneal injection 48 and 24 h prior to exposure, every 24 h during the exposure and once during the 24 h recovery period. Ocular tissues were obtained 24 h after light exposure. The tissues were analyzed using a quantitative computer image analyses system attached to the microscope. Retinal layer thickness, number of macrophages in the subretinal space, number of pyknotic nuclei in the outer nuclear layer, and retinal layer areas were parameters that were measured and statistically analyzed.
Control rats remaining on their normal 12 h light/12 h dark light cycle were devoid of retinal lesions upon microscopic examination and were assessed to have normal retinal function. […] The number of pyknotic photoreceptor nuclei was reduced by 50% in the outer nuclear layer compared to non-dosed animals.

A further assay deals with retinal function of rats. As to the kind of experiment: Ocular function by electroretinography after light exposure. The conditions noted are these: ERG a-wave and b-wave after 48 h light exposure. Type of assay: in vivo, rat. As for the experimental part:
as §2
Ocular function was measured using electroretinography. Rats were anesthetized after a four-day recovery period in the dark. Flash ERGs were elicited by viewing a ganzfield. Electrical responses to a series of light flashes increasing in intensity were digitized to analyze response voltage-log intensity relationships.
Retinal function was assessed by measuring the electroretinogram after 48 h light exposure. The ERG allows differential examination of photoreceptor activity (a-wave) and inner nuclear layer function (b-wave) which is correlated to retinal morphology change.

The conditions of assay [4]: value from Free Rad. Res. Comms., volume 15, pages 91-100 (1991); cited from earlier work.
[5] abbreviates: Summary of Activity table, test compound and DPPH 0.4 mMol.
The mark [6] stands for this setting: test compound and DPPH 0.4 mMol in 95% ethanol, thirty minutes.
Setting [7] is: Bos taurus, Summary of Activity table, bovine retinal pieces.
Where [8] appears, read: ADP (1 mM)/FeCl3 (10 μM), NADPH regenerating system, TBA test.
Where [9] appears, read: Fe^+3/EDTA (167 μM) and ascorbate (167 μM), conjugate diene formation, read-out: Phospholipid Oxidation IC50.
The mark [10] stands for this setting: Summary of Activity table, read-out: Phosopholipid Oxidation IC50.
The mark [11] stands for this setting: Summary of Activity table, rat brain cortices, read-out: Ca+2 Binding IC50.
Where [12] appears, read: rat brain cortices membrane, read-out: Ca^+2 Binding IC50.

On to `Cc1cc(C(C)(C)C)c(O)c(C(C)(C)C)c1` [BHT], for which the DPPH (% Quench) in [1] (setting [5]) and in assay [1] (setting [6]) was 64% each time. For the same molecule, the IC50 (usually the point on the concentration scale where inhibition reaches its midpoint) came out at 500 nM in the assay on bovine retinal pieces (setting [7]); 1100 nM in the assay with Liver Microsomes (setting [8]); 1100 nM in the assay with Liver Microsomes (Summary of Activity table); 201000 nM in assay [2] (setting [9]); 201000 nM in assay [2] (setting [10]). The “Singlet Oxygen Quenching Kq” value in the assay “Singlet oxygen quenching” was “IA”.

For the molecule `Cc1c(C)c2c(c(C)c1O)CCC(C)(CCN1CCN(C(c3ccc(F)cc3)c3ccc(F)cc3)CC1)O2` (stereo not drawn) [Compound No. 1, 1-(4,4'-difluorobenzhydryl)-4-(6-hydroxy-2,5,7,8-tetramethylchroman-2-ethyl)piperazine], the DPPH (% Quench) in assay [1] (setting [5]) and in [1] (setting [6]) was 99% throughout. In addition, the IC50 with bovine retinal pieces (setting [7]) was 10 nM; in the assay with Liver Microsomes (setting [8]), 1000 nM; with Liver Microsomes (Summary of Activity table) it was 1000 nM; in assay [2] (setting [9]), 3600 nM; in assay [2] (setting [10]), 3600 nM; in assay [3] (setting [11]), 1000 to 10000 nM. The IC50 in [3] (setting [12]) lay in the range of 1000 to 10000 nM. Besides, the “Damage to photoreceptor cells” value in the assay with retina of albino rats is on record as “significantly minimized”. In addition, the RPE damage entry in the assay on retina of albino rats is listed as “greatly reduced”. Moreover, the “outer and inner segment damage (photoreceptor length)” value in the assay on retina of albino rats was “prevented outer and inner segment damage”. The “reduction of number of pyknotic photoreceptor nuclei in the outer nuclear layer” value in the assay with retina of albino rats (compared to non-dosed animals) came to 50%. The “Macrophages in the subretinal space, compared to control values” in the assay on retina of albino rats (vs control values) was “not greater than control values”. Besides, the “Macrophages in the subretinal space, compared to non-dosed light exposed rats” value in the assay with retina of albino rats (vs non-dosed light exposed rats) is given as “significantly reduced”. Besides, in the assay with retinal function of rats, the “preservation of retinal function (electroretinogram)” value is listed as “Significant preservation of retinal function”.

For the molecule `Cc1c(C)c2c(c(C)c1O)CCC(C)(CN1CCN(C(c3ccc(F)cc3)c3ccc(F)cc3)CC1)O2` (stereo not drawn) [Compound No. 2, 1-(4,4'-difluorobenzhydryl)-4-(6-hydroxy-2,5,6,8-tetramethylchroman-2-methyl)piperazine dimaleate hemihydrate], the DPPH (% Quench) in assay [1] (setting [5]) and in [1] (setting [6]) was 96% throughout. The IC50 in the assay on bovine retinal pieces (setting [7]) is 50 nM; in [2] (setting [9]), 180 nM; in [3] (setting [11]), 1000 to 10000 nM; in assay [3] (setting [12]) it was 1000 to 10000 nM. In the assay “Singlet oxygen quenching”, the “Singlet Oxygen Quenching Kq” value amounted to 1.6e+08 M⁻¹ s⁻¹.

As to `Fc1ccc(C(c2ccc(F)cc2)N2CCN(C/C=C/c3ccccc3)CC2)cc1` [Flunarizine], the half-inhibitory concentration (IC50) with Liver Microsomes (setting [8]) and with Liver Microsomes (Summary of Activity table) was 27100 nM throughout. In addition, in “Singlet oxygen quenching”, the “Singlet Oxygen Quenching Kq” value stood at 5e+06 M⁻¹ s⁻¹. The “DPPH (% Quench), literature value” in [4] is 10%.

As for `Cc1c(C)c2c(c(C)c1O)CC[C@@](C)(CCC[C@H](C)CCC[C@H](C)CCCC(C)C)O2` [Vitamin E, α-tocopherol], the DPPH (% Quench) in assay [1] (setting [5]) and in assay [1] (setting [6]) was 87% in each case. Moreover, the IC50 in the assay with bovine retinal pieces (Summary of Activity table, bovine retinal pieces) was 1 nM; in the assay on bovine retinal pieces (bovine retina, hypoxia 1 h, agent added after 50 minutes, reoxygenation 1 h, TBARS), 1 nM; in the assay with Liver Microsomes (setting [8]), 37000 nM; in the assay with Liver Microsomes (Summary of Activity table), 37000 nM; in [2] (setting [9]), 4200 nM; in assay [2] (setting [10]), 4200 nM. The “Singlet Oxygen Quenching Kq” value in the assay “Singlet oxygen quenching” turned out to be 1.2e+08 M⁻¹ s⁻¹. Besides, in assay [4], the “DPPH (% Quench), literature value” is listed as 90%.
